Results on eleven compounds are retold here after ChEMBL document CHEMBL1909589, “5-(2'-Pyridyl)-2-aminothiazoles: alkyl amino sulfonamides and sulfamides as potent NPY(5) antagonists” (Bioorg Med Chem Lett, 2011).

As a reminder, the bioavailability is the share of a dose that reaches the circulation, judged against a reference dose that is usually intravenous. A lower bioavailability goes with little systemic uptake.

In data set [1] the test system is Liver microsomes. Description: Intrinsic clearance in human liver microsomes. In kind it is ADME, Microsome.
Data set [2] deals with Liver microsomes. Description: Intrinsic clearance in rat liver microsomes. Type of data set: ADME, Microsome. In general terms: Liver microsomes are vesicles of endoplasmic reticulum, rich in cytochrome P450 enzymes.
Data set [3] is described as follows: Volume of distribution at steady state in Sprague-Dawley rat at 2 mg/kg, po and 1 mg/kg, iv by HPLC method. The settings on record: in vivo, read-out: Vdss. In kind it is ADME, organism-based.
The nature of data set [4]: Plasma clearance in Sprague-Dawley rat at 2 mg/kg, po and 1 mg/kg, iv by HPLC method. In kind it is ADME, organism-based.
A short description of data set [5]: Drug uptake in Sprague-Dawley rat brain at 3 mg/kg, po after 1 hr. The settings on record: read-out: Drug uptake. Type of data set: ADME, organism-based. The arrangement: dose 3 mg/kg, route oral.
Data set [6] in a line: Plasma concentration in Sprague-Dawley rat at 10 mg/kg, po after 4 hrs. Details: dose 10 mg/kg, route oral. In kind it is ADME, organism-based.
Data set [7] can be described thus: Drug uptake in Sprague-Dawley rat brain at 10 mg/kg, po after 4 hrs. The arrangement: dose 10 mg/kg, route oral. To be noted: read-out: Drug uptake. Type of data set: ADME, organism-based.
The nature of data set [8]: Absolute oral bioavailability in Sprague-Dawley rat at 2 mg/kg by HPLC method. In kind it is ADME, organism-based. To be noted: in vivo.
A short description of data set [9]: Plasma concentration in Sprague-Dawley rat at 3 mg/kg, po after 1 hr. In kind it is ADME, organism-based. The arrangement: dose 3 mg/kg, route oral.

With `O=S(=O)(NCCCCCNc1nc(-c2ccccn2)cs1)N1CCOCC1`, the values for the CL with Liver microsomes [1] and with Liver microsomes [2] were 2.9 L/min and 44 mL/min, respectively.
Consider `CC(C)S(=O)(=O)NCCOCCNc1nc(-c2ccccn2)cs1`, for which the CL in the data set with Liver microsomes [1] turned out to be 1.1 L/min.
For `CC(C)S(=O)(=O)NCCCCCNc1nc(-c2ccsc2)cs1`, the values for the CL with Liver microsomes [1] and with Liver microsomes [2] were 5.4 L/min and 87 mL/min, respectively.
The corresponding values for `CC1CN(S(=O)(=O)NCCCCCNc2nc(-c3ccccn3)cs2)CC(C)O1` (stereo not given) are 11 L/min and 74 mL/min.
Compound `Cc1nc(C)c(S(=O)(=O)NCCCCCNc2nc(-c3ccccn3)cs2)s1` yielded a CL with Liver microsomes [1] of 27 L/min.
On to `CCN(CC)S(=O)(=O)NCCCCCNc1nc(-c2ccccn2)cs1`, for which the CL came out at 27 L/min with Liver microsomes [1] and 290 mL/min with Liver microsomes [2].
As for `CN(C)S(=O)(=O)NCCCCCNc1nc(-c2ccccn2)cs1`, the Vd in [3] amounted to 47 L/kg. In data set [4], the clearance was 140 mL/min/kg. For the same compound, the CL in the data set with Liver microsomes [1] is 1.8 L/min; with Liver microsomes [2] it was 110 mL/min. Further, the values for the concentration at 1 h in data set [5] and in data set [9] were 4 ng/g and 12 ng/mL, respectively. Moreover, the concentration at 4 h stood at 24 ng/mL in data set [6] and 12 ng/g in data set [7]. Besides, in [8], the bioavailability was 26%.
With `CS(=O)(=O)NC[C@H]1CC[C@H](Nc2nc3c(s2)CCSc2ccccc2-3)CC1`, the CL stood at 2.5 L/min in the data set with Liver microsomes [1] and 40 mL/min with Liver microsomes [2].
The corresponding values for `CN1CCN(S(=O)(=O)NCCCCCNc2nc(-c3ccccn3)cs2)CC1` are 2.5 L/min and 120 mL/min.
The corresponding values for `COCCN(CCOC)S(=O)(=O)NCCCCCNc1nc(-c2ccccn2)cs1` are 16 L/min and 150 mL/min.
Take `CC(C)S(=O)(=O)NCCCCCNc1nc(-c2ccccn2)cs1`: the Vd in data set [3] was found to be 22 L/kg. Also, in data set [4], the clearance was 383 mL/min/kg. Besides, the figures for the CL in the data set on Liver microsomes [1] and in the data set on Liver microsomes [2] were 2.2 L/min and 72 mL/min, respectively. Besides, in data set [8], the bioavailability worked out at 49%.
